Among the data in a melting point compilation (Tetko et al.; mined from patent text by program, amines drawn as free bases though some values may be those of a salt) are melting point values, retold here.

The melting point is the temperature of the solid-liquid transition.

Take `CN1CCOc2cc(S(=O)(=O)n3c(COC(C)(C)C(=O)O)cc4cc(C(F)(F)F)ccc43)ccc21`: the melting point fell in the range of 148 to 150 °C.

In turn, `CCSc1ccnc(Cl)c1C#N` returned a melting point of 97 to 98 °C. The result for `CCc1cn2ccccc2c1S(=O)(=O)c1ccc(OCCCN(C)C(C)c2ccc(OC)c(OC)c2)cc1` (configuration not stated) reads 78 to 80 °C. With `N#CCSc1nc(Cl)cc(-c2ccccc2)n1`, the melting point lay in the range of 136 to 141 °C.

Take `CCCCCCCCCCCCCCCCCCOC(=O)c1ccccc1I`: the melting point turned out to be 35 °C. In turn, `CCCOc1ccc(CCl)cc1-c1nc2c(CCC)nn(C)c2c(=O)[nH]1` showed a melting point of 102 to 104 °C. With `O=CNNc1cccc(NC(=S)Nc2ccccc2)c1` the figure was 143 to 145 °C. With `CCOC(=O)c1c(O)c2cscc2[nH]c1=O` the figure was 193 °C; with `O=C(NCCN(C1CC1)S(=O)(=O)c1ccccc1[N+](=O)[O-])N1CCN2C(=O)OC(c3cccc(F)c3)(c3cccc(F)c3)C2C1` (configuration not stated), 203 °C; with `CCNC(=O)NC[C@H](O)c1cccc(O)c1`, 102 to 105 °C.

For `C#CCCCc1c2c3c(nc(N)c2nn1CCC)CCCC3`, the melting point lay in the range of 167 to 169 °C. `CC(C)(C)OC(=O)N1CCc2cc(OCc3ccccc3)c(OCc3ccccc3)cc2C1Cc1ccc([N+](=O)[O-])cc1` (configuration not stated) showed a melting point of 150 to 152 °C.

With `Cc1nn(C)cc1S(N)(=O)=O`, the melting point is 97 to 105 °C. The result for `COC(=O)C1=C(C)NC(C)=C(C(=O)OC)C1c1ccc(F)c(Nc2c(NCCCN3CCC(c4cccc(OC)c4)CC3)c(=O)c2=O)c1` reads 205 to 207 °C. With `CC(NC1CCC(=O)NC1c1ccc(F)cc1)c1cc(C(F)(F)F)cc(C(F)(F)F)c1` (configuration not stated) the figure was 120 °C; with `CC(C)(C)c1cccc(C[C@@H](NC(=O)c2cccc3c(Cl)cccc23)[C@@H](O)c2cccc(Cl)c2)c1` (racemic), 91 to 93 °C. Take `CCCC12CCC(=O)C=C1c1c(cc(OCC(=O)O)c(Cl)c1Cl)CC2` (configuration not stated): the melting point was in the range of 193 to 194 °C. Molecule `CCCCCCCCCCCc1cc(O)c(CCCCCC)c(=O)o1` yielded a melting point of 83 to 84 °C. The result for `O=S(c1ccc(Cl)cc1)c1cc(C(F)(F)F)[nH]c1-c1ccc(Cl)cc1` (configuration not stated) reads 174 to 176 °C; that for `Oc1ccccc1-c1nc(-c2ccccc2)no1`, 156 to 158 °C; that for `NC(=O)c1cccc2c1OC(F)(F)O2`, 130 to 131 °C.

Consider `Nc1c(F)c(Cl)c(O)c(Cl)c1F`, for which the melting point came out at 151 °C. `CC(C)Oc1ccc(Oc2ccc3c(c2)c(C(=O)O)c(CC(=O)O)n3-c2ccc(C(C)C)cc2)cc1` displayed a melting point of 205 to 210 °C.

Consider `CC(=O)OCC1OC(Cl)C(N=[N+]=[N-])C(OC(C)=O)C1OC(C)=O` (configuration not stated), for which the melting point is 102 to 104 °C. For the molecule `CN(C)C(=O)OCc1nc([N+](=O)[O-])c(C#N)n1C`, the melting point is 85 to 88 °C.

Turning to `CCCCCS(=O)(=O)NC(=O)CCc1cc(OCCCC)nn1Cc1ccc(Cl)cc1Cl`, the melting point is 104 to 105 °C.

`Cc1cc2ncc(-c3nnnn3C)c(O)c2cc1C` came in with a melting point of 301 to 303 °C. The result for `NS(=O)(=O)c1ccc(S(=O)(=O)N2CCc3cccc(-c4ccncc4)c32)cc1` reads 242 to 243 °C. Consider `CCOc1cc2c(c(F)c1F)OC(C1CCC(CC)CC1)CC2` (configuration not stated), for which the melting point is 90 °C. With `CCCCN(CCCC)c1ccc(C=CC2=CC(=CC=CC3=C(C#N)C(=C(C#N)C#N)OC3(C)C)CC(C)(C)C2)c(OC)c1` the figure was 228 to 230 °C; with `COC(=O)c1ccc2c(c1)CCN2Cc1cccc([N+](=O)[O-])c1`, 99 to 100 °C.

In turn, `CCC(CC)(CC(=O)Nc1ccc2ccc(OCc3ccc4cc(F)ccc4n3)cc2c1)C(=O)O` returned a melting point of 191 to 196 °C. The result for `CN1CCC(Nc2ccc([N+](=O)[O-])cc2)CC1` reads 153 to 155 °C; that for `O=C(O)C(CCC1=CCCCC1)Oc1ccc(-c2ccc(Cl)s2)cc1` (configuration not stated), 136 to 138 °C. With `Nc1nc2ccccc2c2c1ncn2CCCCCC(=O)N1CCOCC1` the figure was 166 to 168 °C.

`CCOC(Cc1ccc(OCCN2CCC(C)(C)c3cc(C(=NOC)c4ccccc4)ccc32)cc1)C(=O)O` (configuration not stated) gave a melting point of 62 to 64 °C.

Regarding `COc1cc(N(C(C)=O)C2CCCCC2)c2ccccc2c1OC(C)=O`, the melting point is 137 to 139 °C. With `CC(C)(C)[Si](C)(C)OCCOc1cccnc1Br` the figure was 81 °C; with `CCOC(=O)OC1Oc2ccc(OS(C)(=O)=O)cc2C1(C)C` (configuration not stated), 85 to 87 °C. With `Cc1ccc2oc(=O)c(C(=O)Oc3cc([N+](=O)[O-])ccc3[N+](=O)[O-])cc2c1` the figure was 225 to 229 °C; with `CCCc1nc(-n2cccc2C(=O)C(F)(F)F)c(C#N)[nH]1`, 104 to 105 °C; with `CCC(CC)n1nnc2cc(C(F)(F)F)cc([N+](=O)[O-])c21`, 42 to 45 °C.

In the case of `N#CCCNC(=O)c1cccc(-c2cccc3c2OC(Cc2cccc(C(F)(F)F)c2)C3)c1` (configuration not stated), the melting point was in the range of 145 to 146 °C.

In turn, `Cc1cc(N2CCN(Cc3ccc(F)cc3)C2=O)sc1C(=O)NCc1cccs1` came in with a melting point of 128 to 131 °C.

`Nc1c(NCCCOc2cc(CN3CCCCC3)ccn2)c(=O)c1=O` yielded a melting point of 226 to 228 °C. The molecule `Cc1ccc(S(=O)(=O)N2CCC(c3ccc(CCCCC(=O)O)cc3)CC2)cc1` returned a melting point of 164 to 170 °C.

Molecule `O=C(Nc1ccc2ccc(Cl)nc2n1)c1ccc2ccccc2n1` showed a melting point of 260 °C.

`CN1C(C)(C)CC(CO)CC1(C)C` yielded a melting point of 84 to 85 °C. The result for `CCOC(=O)c1ccc(NC=CS(=O)(=O)F)cc1` reads 110 to 112 °C. With `COc1ccc2c(c1)CCCC21NC(=O)NC1=O` (configuration not stated) the figure was 218 to 220 °C; with `CSC1=NN=C(c2ccc([N+](=O)[O-])cc2)c2cc3c(cc2C1)OCO3`, 280 to 281 °C. The result for `COc1nc(CC(=O)O)ccc1NC(=O)Nc1ccccc1Br` reads 195 to 197 °C; that for `Cc1cc(C)c2ncc(NC(=O)C=Cc3cc(C)c(O)c(C)c3)c(-c3ccccc3Cl)c2c1`, 249 to 251 °C; that for `CC(=O)Nc1cc(CCl)c(I)cn1`, 173 to 174 °C. The molecule `COC(=O)C1=C(C)Nc2ccccc2NC1c1cccc([N+](=O)[O-])c1` (configuration not stated) returned a melting point of 124 to 126 °C. With `Cc1ccc2c(c1)C(=O)c1ccc(C(=O)O)cc1S2(=O)=O` the figure was 357 °C; with `O=CN(O)C(CO)CS(=O)(=O)c1ccc(-c2ccc(OC(F)(F)F)cc2)cc1` (configuration not stated), 167 to 168 °C. `OCC1(CO)C=CC(c2ccccc2)=CC1` yielded a melting point of 187 to 188 °C. For the molecule `COc1cc2nc(N3CCN(C(=O)C=Cc4ccc(N(C)C)cc4)CC3)nc(N)c2cc1OC`, the melting point was in the range of 288 to 289 °C. For `COC(=O)c1ccccc1NC(=O)c1cnc(S(C)(=O)=O)nc1`, the melting point lay within 187 to 189 °C.

The molecule `COc1ccc(CNCCCOc2ccc(S(=O)(=O)c3c(C(C)C)cn4ccccc34)cc2)cc1OC` displayed a melting point of 109 to 111 °C. Regarding `CSc1nc(=O)n(Cc2ccccc2)c2ncn(C)c12`, the melting point fell in the range of 268 to 270 °C. The result for `CCCCc1cc(OCc2ccc(-c3ccccc3C(=O)O)cc2)c2ccccc2n1` reads 145 °C; that for `O=C(c1ccc(F)cc1)N1CCN(S(=O)(=O)c2ccc(Nc3ccnc4cc(C(F)(F)F)ccc34)cc2)CC1`, 172 to 174 °C. `Clc1c2ccccc2nc2c1cnn2-c1ccccn1`: the melting point is 153 to 156 °C. With `CN1CCC(C(=O)N(C)c2ccc(C(=O)N3CCCCc4ccccc43)cc2)CC1` the figure was 194 to 197 °C; with `CS(=O)(=O)c1ccc(-c2nn(CC#N)c(C(F)(F)F)c2-c2ccc(F)cc2)cc1`, 192 to 194 °C. As for `C[C@H](NC(=O)c1c[nH]c2ncc(-c3ccc(C(=O)NC4CCOCC4)s3)nc12)C(C)(C)C`, the melting point fell in the range of 333 to 334 °C. The result for `O=C(NCCC1CCCCCCCCCCC1)C1=C(O)COC1=O` reads 135 to 137 °C.

`Nc1nc2ccccc2c2c1ncn2CCNC(=O)CCc1ccccc1` came in with a melting point of 254 to 256 °C. The result for `CC(OC(=O)C1CCNCC1)C(c1ccccc1)(c1ccccc1)c1ccccc1` (configuration not stated) reads 154 to 155 °C; that for `CCOC(=O)/C=C/c1cnn(C)c1-c1ccoc1`, 82 to 83 °C; that for `CC#CC(Cc1ccccc1)n1nnc2cc3c(cc2c1=O)OC1CCCN1C3=O` (configuration not stated), 160 to 162 °C. With `Fc1ccc(Oc2ncc3c(-c4ccccc4Cl)n[nH]c3n2)c(F)c1` the figure was 173 to 176 °C; with `CCCn1c(=O)c2[nH]c(C3(N)CCCCC3)nc2n(CCC)c1=O`, 172 to 173 °C; with `c1ccc(COc2ccc(-c3ccc(OCc4ccccc4)cc3)cc2)cc1`, 222 to 224 °C. As to `Cc1cc(C)c2nc(NC3CCN(CCCO)CC3)n(Cc3nc(C)ccc3O)c2c1`, the melting point was determined as 172 °C. `COc1cccc(Cn2cc3c(-c4cccc(C(=O)NCCC#N)c4)cccc3n2)c1` returned a melting point of 176 to 177 °C.

`CS(=O)(=O)c1ccc(C(CC2CCCC2)C(=O)Nc2ccc3ccccc3n2)cc1[N+](=O)[O-]` (configuration not stated) registered a melting point of 102 to 106 °C. The result for `O=C(c1ccccc1)c1ccc(OCCOCCO)cc1` reads 31 to 32 °C; that for `CC(C)[C@]1(CCc2ccsc2)CC(O)=CC(=O)O1`, 117 to 123 °C. As for `CCCCc1nc(=O)c2cc(-c3nnn[nH]3)ccc2[nH]1`, the melting point came to 225 °C. Regarding `Nc1ccc(Cc2ccc(N)c(C(F)(F)F)c2)cc1C(F)(F)F`, the melting point lay in the range of 84 to 88 °C. With `Cc1ccc(-c2ccc3c(c2)C=C(C(=O)Nc2ccc(CN4CCCCC4)cc2)CC(C)O3)cc1` (configuration not stated) the figure was 175 to 176 °C. For `CC1=Nc2c3c(C)cnc-3ccn2C1`, the melting point worked out at 211 °C. With `CCC(C)C(C)C(=O)Nc1ccc2c(C)cn3c(=O)c(C(=O)Nc4nnn[nH]4)cnc3c2c1` (configuration not stated) the figure was > 300 °C. Consider `CNC(=O)c1ccc2cc(C(=O)O)ccc2c1`, for which the melting point was > 276 °C.
